Data from paper PMC7432509, “Investigating the Product Profiles and Structural Relationships of New Levansucrases with Conventional and Non-Conventional Substrates” (International Journal of Molecular Sciences, 2020).

Assays:
Format in all cases: biochemical
[1] = target: T1, LS from Gluconobacter oxydans (Gluconobacter oxydans, UniProt Q5FSK0); assay: HPAEC-PAD, bioconversion of raffinose; details: raffinose as sole fructosyl donor and acceptor (0.8 M in methods, 0.9 M in figure legend)
T1 construct: gene GOX0873; pET22b(+), E. coli BL21(DE3), HisTrap purified
T1 sequence (Q5FSK0 1-436): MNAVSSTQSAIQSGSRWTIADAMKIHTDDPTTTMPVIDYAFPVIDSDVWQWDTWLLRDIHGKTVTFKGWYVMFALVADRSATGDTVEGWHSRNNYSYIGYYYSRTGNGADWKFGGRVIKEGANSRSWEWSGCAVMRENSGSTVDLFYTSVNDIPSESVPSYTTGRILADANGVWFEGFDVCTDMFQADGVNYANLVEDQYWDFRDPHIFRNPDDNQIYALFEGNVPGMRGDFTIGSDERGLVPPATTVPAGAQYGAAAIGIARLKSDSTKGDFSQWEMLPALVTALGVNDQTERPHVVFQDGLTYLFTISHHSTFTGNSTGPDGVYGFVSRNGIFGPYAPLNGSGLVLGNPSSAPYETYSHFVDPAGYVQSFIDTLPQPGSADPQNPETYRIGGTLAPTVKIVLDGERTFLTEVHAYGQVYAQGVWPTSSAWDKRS

[2] = target: T2, LS from Paraburkholderia graminis (Paraburkholderia graminis, UniProt B1G3X6); assay: HPAEC-PAD, bioconversion of raffinose; details: raffinose as sole fructosyl donor and acceptor (0.8 M in methods, 0.9 M in figure legend)
T2 construct: gene BgramDRAFT_4066; pET22b(+), E. coli BL21(DE3), HisTrap purified
T2 sequence (B1G3X6 36-529): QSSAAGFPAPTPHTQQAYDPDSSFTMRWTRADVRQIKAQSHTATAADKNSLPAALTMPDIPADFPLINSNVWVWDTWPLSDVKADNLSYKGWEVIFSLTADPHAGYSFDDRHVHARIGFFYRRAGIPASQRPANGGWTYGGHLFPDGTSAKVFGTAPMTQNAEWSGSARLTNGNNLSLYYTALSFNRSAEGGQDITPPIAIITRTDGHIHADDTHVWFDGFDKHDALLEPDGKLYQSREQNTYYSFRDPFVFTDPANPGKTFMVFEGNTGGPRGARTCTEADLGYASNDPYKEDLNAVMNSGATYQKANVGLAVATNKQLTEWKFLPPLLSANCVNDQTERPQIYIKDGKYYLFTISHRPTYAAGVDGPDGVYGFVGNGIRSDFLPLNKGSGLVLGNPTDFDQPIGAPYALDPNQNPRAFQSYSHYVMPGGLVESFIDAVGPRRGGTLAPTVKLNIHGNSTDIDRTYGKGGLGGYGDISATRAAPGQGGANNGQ

[3] = target: T3, LS from Novosphingobium aromaticivorans (Novosphingobium aromaticivorans, UniProt Q2G754); assay: HPAEC-PAD, bioconversion of raffinose; details: raffinose as sole fructosyl donor and acceptor (0.8 M in methods, 0.9 M in figure legend)
T3 construct: gene Saro_1879; pET22b(+), E. coli BL21(DE3), HisTrap purified
T3 sequence (Q2G754 1-377): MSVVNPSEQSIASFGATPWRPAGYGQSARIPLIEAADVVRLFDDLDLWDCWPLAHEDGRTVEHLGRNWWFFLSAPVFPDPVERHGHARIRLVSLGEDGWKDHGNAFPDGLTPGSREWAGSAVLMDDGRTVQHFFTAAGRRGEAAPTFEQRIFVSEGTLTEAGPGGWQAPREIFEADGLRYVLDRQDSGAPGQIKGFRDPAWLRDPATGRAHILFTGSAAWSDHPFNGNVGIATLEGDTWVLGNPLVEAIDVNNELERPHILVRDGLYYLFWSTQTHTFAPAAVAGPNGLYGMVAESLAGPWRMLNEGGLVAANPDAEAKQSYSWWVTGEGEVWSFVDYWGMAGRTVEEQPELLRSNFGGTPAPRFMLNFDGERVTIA

[4] = target: T4, LS from Beijerinckia indica subsp. indica (Beijerinckia indica, UniProt B2IF78); assay: HPAEC-PAD, bioconversion of raffinose; details: raffinose as sole fructosyl donor and acceptor (0.8 M in methods, 0.9 M in figure legend)
T4 construct: gene Bind_2021; pET22b(+), E. coli BL21(DE3), HisTrap purified
T4 sequence (B2IF78 29-534): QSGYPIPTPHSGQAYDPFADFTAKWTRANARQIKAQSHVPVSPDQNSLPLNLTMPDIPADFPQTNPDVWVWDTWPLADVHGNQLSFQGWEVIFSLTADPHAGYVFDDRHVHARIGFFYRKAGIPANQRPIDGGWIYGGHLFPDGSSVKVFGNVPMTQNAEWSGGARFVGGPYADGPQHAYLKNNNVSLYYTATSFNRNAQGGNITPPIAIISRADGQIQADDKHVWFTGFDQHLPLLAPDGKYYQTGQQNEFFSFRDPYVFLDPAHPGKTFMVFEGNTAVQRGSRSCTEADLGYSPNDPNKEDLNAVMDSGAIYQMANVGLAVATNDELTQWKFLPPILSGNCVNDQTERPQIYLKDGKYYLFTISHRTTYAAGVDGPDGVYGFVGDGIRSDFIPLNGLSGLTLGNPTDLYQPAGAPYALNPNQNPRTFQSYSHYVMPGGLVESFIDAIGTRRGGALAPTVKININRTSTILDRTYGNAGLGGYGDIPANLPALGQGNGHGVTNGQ

[5] = target: T5, LS from Vibrio natriegens (Vibrio natriegens, UniProt A0AAN0Y6N0); assay: HPAEC-PAD, bioconversion of raffinose; details: raffinose as sole fructosyl donor and acceptor (0.8 M in methods, 0.9 M in figure legend)
T5 construct: gene BA890_19745; pET22b(+), E. coli BL21(DE3), HisTrap purified
T5 sequence (A0AAN0Y6N0 28-523): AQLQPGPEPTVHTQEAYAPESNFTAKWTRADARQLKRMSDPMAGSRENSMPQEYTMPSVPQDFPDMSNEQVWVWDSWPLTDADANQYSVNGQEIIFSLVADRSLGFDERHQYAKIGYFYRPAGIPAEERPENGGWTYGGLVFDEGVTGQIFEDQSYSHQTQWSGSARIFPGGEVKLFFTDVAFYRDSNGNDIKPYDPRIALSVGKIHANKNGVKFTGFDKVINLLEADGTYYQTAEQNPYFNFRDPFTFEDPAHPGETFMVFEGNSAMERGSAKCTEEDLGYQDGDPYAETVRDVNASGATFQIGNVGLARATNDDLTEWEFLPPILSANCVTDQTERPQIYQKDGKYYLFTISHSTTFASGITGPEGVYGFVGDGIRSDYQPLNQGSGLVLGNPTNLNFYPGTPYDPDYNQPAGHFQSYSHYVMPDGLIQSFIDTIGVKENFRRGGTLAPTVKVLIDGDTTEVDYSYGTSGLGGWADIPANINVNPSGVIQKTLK

[6] = target: T2, LS from Paraburkholderia graminis; assay: HPAEC-PAD time course of sucrose conversion; details: 0.8 M sucrose, 30 °C, 5-7 U/mL; fructosyl donor and acceptor
[7] = target: T1, LS from Gluconobacter oxydans; assay: HPAEC-PAD time course of sucrose conversion; details: 0.8 M sucrose, 30 °C, 5-7 U/mL; fructosyl donor and acceptor

Row | SMILES | HPAEC-PAD, bioconversion of raffinose [1] | HPAEC-PAD, bioconversion of raffinose [2] | HPAEC-PAD, bioconversion of raffinose [3] | HPAEC-PAD, bioconversion of raffinose [4] | HPAEC-PAD, bioconversion of raffinose [5] | HPAEC-PAD time course of sucrose conversion [6] | HPAEC-PAD time course of sucrose conversion [7]
1 | OC[C@H]1O[C@H](OC[C@H]2O[C@H](O[C@]3(CO)O[C@H](CO)[C@@H](O)[C@@H]3O)[C@H](O)[C@@H](O)[C@@H]2O)[C@H](O)[C@@H](O)[C@H]1O [raffinose] | All LSs were able to produce a few different trisaccharides | LS from P. graminis catalyzed the synthesis of multiple oligosaccharides using raffinose | LS from V. natriegens, N. aromaticivorans, and B. indica subsp. indica preferred raffinose as the substrate | LS from V. natriegens, N. aromaticivorans, and B. indica subsp. indica preferred raffinose as the substrate | LS from V. natriegens, N. aromaticivorans, and B. indica subsp. indica preferred raffinose as the substrate |  | 
2 | OC[C@H]1O[C@@](CO)(O[C@H]2O[C@H](CO)[C@@H](O)[C@H](O)[C@H]2O)[C@@H](O)[C@@H]1O [sucrose] |  |  |  |  |  | The LS from P. graminis used the highest amount of sucrose amongst all the enzymes tested | The LSs from G. oxydans and P. graminis almost depleted the sucrose
